From US20250064864A1, “MICROBIAL STRAIN OF LACHNOSPIRACEAE, DRUG FOR PREVENTING OR TREATING TUMORS AND USE” (MOON (GUANGZHOU) BIOTECH CO., LTD., priority 2021, published 2025)
Where two headings read alike, the source gives them in different places.

How the values were obtained:
MNH 46686 strain = test: Antibiotic susceptibility test by disk diffusion method; assay type: cell-based, Lachnospiraceae sp. MNH 46686; conditions: for Diameter of inhibition zone: against MNH 46686 strain
Description: 2.4 Antibiotic Susceptibility Test of MNH 46686 Strain by Disk Diffusion Method

IFNβ = test: THP-1 IFNβ-promoter reporter (luciferase) assay; assay type: cell-based; conditions: 20 μM, 40 μM and 80 μM, 24 h
Description: Interferon (IFN) […] are a group of cytokines secreted by host cells, which can regulate immune responses. Interferons are produced under stimulation by viruses, bacterial endotoxins, synthetic double-stranded RNAs, etc. Macrophages, lymphocytes, somatic cells, etc., in the human body can all produce interferons, in which IFNβ belongs to type I interferons and can promote the activities of NK cells, macrophages, and T lymphocytes. […] Furthermore, the MNH 46686 strain of the present disclosure has been experimentally verified to be able to promote the expression of IFNβ, thereby exerting anti-viral, anti-tumor, immunomodulatory, and other effects. In order to verify whether MNH 46686 can promote the expression of IFNβ, the constructed THP-1 cells (a cell line established by Moon Co.) carrying the IFNβ-promoter reporter were used in this study to evaluate the effect of MNH 46686 on the transcriptional activity of IFNβ. […]
The THP-1-IFNβ-promoter reporter cells were inoculated in a 96-well plate, with 1×10^5 cells per well. […] The chemiluminescence values were detected with a microplate reader. The relative luminescence values were normalized to the untreated group and compared with the relative luminescence readings of the High group to evaluate the effect of MNH 46686 on the transcriptional activity of IFNβ.

| Compound | Note (susceptibility of MNH 46686 strain to the antibiotic) (MNH 46686 strain) | Diameter of inhibition zone (MNH 46686 strain) [mm] | other results |
| --- | --- | --- | --- |
| O=C(N[C@H](CO)[C@H](O)c1ccc([N+](=O)[O-])cc1)C(Cl)Cl [Chloramphenicol] | Sensitive | 18.45 | Note (susceptibility of MNH 46686 strain to the antibiotic) (MNH 46686 strain; listed as chloramphenicol): sensitive |
| O=C(O)c1cn(C2CC2)c2cc(N3CCNCC3)c(F)cc2c1=O [Ciprofloxacin] | Resistant | 0.00 | Note (susceptibility of MNH 46686 strain to the antibiotic) (MNH 46686 strain; listed as ciprofloxacin): resistant |
| CCC[C@@H]1C[C@@H](C(=O)N[C@@H]([C@H]2O[C@H](SC)[C@H](O)[C@@H](O)[C@H]2O)[C@@H](C)O)N(C)C1 [Lincomycin] | Resistant | 0.00 | Note (susceptibility of MNH 46686 strain to the antibiotic) (MNH 46686 strain; listed as lincomycin): resistant |
| Gentamicin | Sensitive | 10.90 | Note (susceptibility of MNH 46686 strain to the antibiotic) (MNH 46686 strain; listed as gentamicin): sensitive |
| CO/N=C(\C(=O)N[C@@H]1C(=O)N2C(C(=O)O)=C(CSc3nc(=O)c(=O)[nH]n3C)CS[C@H]12)c1csc(N)n1 [Ceftriaxone] | Resistant | 0.00 | Note (susceptibility of MNH 46686 strain to the antibiotic) (MNH 46686 strain; listed as ceftriaxone): resistant |
| Trimethoprim-sulfamethoxazole | Resistant | 0.00 | Note (susceptibility of MNH 46686 strain to the antibiotic) (MNH 46686 strain; listed as trimethoprim-sulfamethoxazole): resistant |
| CN(C)[C@@H]1C(O)=C(C(N)=O)C(=O)[C@@]2(O)C(O)=C3C(=O)c4c(O)cccc4[C@@](C)(O)[C@H]3C[C@@H]12 [Tetracycline] |  | 12.01 |  |
| CC[C@H]1OC(=O)[C@H](C)[C@@H](O[C@H]2C[C@@](C)(OC)[C@@H](O)[C@H](C)O2)[C@H](C)[C@@H](O[C@@H]2O[C@H](C)C[C@H](N(C)C)[C@H]2O)[C@](C)(O)C[C@@H](C)C(=O)[C@H](C)[C@@H](O)[C@]1(C)O [Erythromycin] | Resistant | 0.00 | Note (susceptibility of MNH 46686 strain to the antibiotic) (MNH 46686 strain; listed as erythromycin): resistant |
| COc1cc2cc(C(=O)CCC(=O)O)sc2cc1OC [MSA-2] |  |  | response of the IFNβ reporter system to the positive drug (IFNβ): good response |
| Penicillin | Sensitive | 19.69 | Note (susceptibility of MNH 46686 strain to the antibiotic) (MNH 46686 strain; listed as penicillin): sensitive |
| CC1(C)S[C@@H]2[C@H](NC(=O)[C@H](N)c3ccccc3)C(=O)N2[C@H]1C(=O)O [Ampicillin] | Resistant | 0.00 | Note (susceptibility of MNH 46686 strain to the antibiotic) (MNH 46686 strain; listed as ampicillin): resistant |
